Measured values as given in paper PMC10648927, “Examining the activity of cefepime-taniborbactam against Burkholderia cepacia complex and Burkholderia gladioli isolated from cystic fibrosis patients in the United States” (Antimicrobial Agents and Chemotherapy, 2023).
Converted amounts (≈) assume the structure as drawn.

Tests used:
Design in all cases: agar dilution MIC, growth inhibition of clinical Burkholderia isolates
B. contaminans AU17641 = tested on: T1, B. contaminans AU17641; experiment: organism not typed
T1 construct: AU17641
Summary of the method: (§1)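 MICs by agar dilution against Bcc and B. gladioli clinical isolates, interpreted with CLSI breakpoints where available; K. pneumoniae ATCC 700603 (SHV-18) and ATCC BAA-1705 (KPC) served as quality controls.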

B. arboris AU14372 = tested on: T2, B. arboris AU14372; experiment: organism not typed
T2 construct: AU14372
Summary of the method: as §1

B. cenocepacia AU16448 = tested on: T3, B. cenocepacia AU16448; experiment: microbe, parasite or virus in culture; settings: Burkholderia cenocepacia, AU16448
T3 construct: AU16448
Summary of the method: as §1

B. pyrrocinia AU4348 = tested on: T4, B. pyrrocinia AU4348; experiment: microbe, parasite or virus in culture; settings: Burkholderia pyrrocinia, AU4348
T4 construct: AU4348
Summary of the method: as §1

B. multivorans AU14786 = tested on: T5, B. multivorans AU14786; experiment: microbe, parasite or virus in culture; settings: Burkholderia multivorans, AU14786
T5 construct: AU14786
Summary of the method: as §1

B. cepacia AU15249 = tested on: T6, B. cepacia AU15249; experiment: microbe, parasite or virus in culture; settings: Burkholderia cepacia, AU15249
T6 construct: AU15249
Summary of the method: as §1

B. pyrrocinia AU1114 = tested on: T7, B. pyrrocinia AU1114; experiment: microbe, parasite or virus in culture; settings: Burkholderia pyrrocinia, AU1114
T7 construct: AU1114
Summary of the method: as §1

B. ambifaria AU5203 = tested on: T8, B. ambifaria AU5203; experiment: microbe, parasite or virus in culture; settings: Burkholderia ambifaria, AU5203
T8 construct: AU5203
Summary of the method: as §1

B. cenocepacia AU0583 = tested on: T9, B. cenocepacia AU0583; experiment: microbe, parasite or virus in culture; settings: Burkholderia cenocepacia, AU0583
T9 construct: AU0583
Summary of the method: as §1

B. dolosa AU9336 = tested on: T10, B. dolosa AU9336; experiment: microbe, parasite or virus in culture; settings: Burkholderia dolosa, AU9336
T10 construct: AU9336
Summary of the method: as §1

B. cepacia AU17630 = tested on: T11, B. cepacia AU17630; experiment: microbe, parasite or virus in culture; settings: Burkholderia cepacia, AU17630
T11 construct: AU17630
Summary of the method: as §1

B. cenocepacia AU28111 = tested on: T12, B. cenocepacia AU28111; experiment: microbe, parasite or virus in culture; settings: Burkholderia cenocepacia, AU28111
T12 construct: AU28111
Summary of the method: as §1

B. stabilis AU10235 = tested on: T13, B. stabilis AU10235; experiment: microbe, parasite or virus in culture; settings: Burkholderia stabilis, AU10235
T13 construct: AU10235
Summary of the method: as §1

B. contaminans AU15669 = tested on: T14, B. contaminans AU15669; experiment: organism not typed
T14 construct: AU15669
Summary of the method: as §1

B. gladioli AU29223 = tested on: T15, B. gladioli AU29223; experiment: organism not typed
T15 construct: AU29223
Summary of the method: as §1

B. multivorans AU13919 = tested on: T16, B. multivorans AU13919; experiment: microbe, parasite or virus in culture; settings: Burkholderia multivorans, AU13919
T16 construct: AU13919
Summary of the method: as §1

B. multivorans AU28442 = tested on: T17, B. multivorans AU28442; experiment: microbe, parasite or virus in culture; settings: Burkholderia multivorans, AU28442
T17 construct: AU28442
Summary of the method: as §1

B. cenocepacia AU9512 = tested on: T18, B. cenocepacia AU9512; experiment: microbe, parasite or virus in culture; settings: Burkholderia cenocepacia, AU9512
T18 construct: AU9512
Summary of the method: as §1

B. multivorans AU4507 = tested on: T19, B. multivorans AU4507; experiment: microbe, parasite or virus in culture; settings: Burkholderia multivorans, AU4507
T19 construct: AU4507
Summary of the method: as §1

B. cepacia AU16396 = tested on: T20, B. cepacia AU16396; experiment: microbe, parasite or virus in culture; settings: Burkholderia cepacia, AU16396
T20 construct: AU16396
Summary of the method: as §1

B. cenocepacia AU12659 = tested on: T21, B. cenocepacia AU12659; experiment: microbe, parasite or virus in culture; settings: Burkholderia cenocepacia, AU12659
T21 construct: AU12659
Summary of the method: as §1

B. multivorans AU23690 = tested on: T22, B. multivorans AU23690; experiment: microbe, parasite or virus in culture; settings: Burkholderia multivorans, AU23690
T22 construct: AU23690
Summary of the method: as §1

B. multivorans AU14364 = tested on: T23, B. multivorans AU14364; experiment: microbe, parasite or virus in culture; settings: Burkholderia multivorans, AU14364
T23 construct: AU14364
Summary of the method: as §1

SMILES: CO/N=C(\C(=O)N[C@@H]1C(=O)N2C(C(=O)[O-])=C(C[N+]3(C)CCCC3)CS[C@H]12)c1csc(N)n1 [cefepime]
- MIC (B. contaminans AU17641): 32 µg/mL (≈ 66.6 µM)
- MIC (B. arboris AU14372): > 32 µg/mL
- MIC (B. cenocepacia AU16448): 16 µg/mL (≈ 33.3 µM)
- MIC (B. pyrrocinia AU4348): 32 µg/mL (≈ 66.6 µM)
- MIC (B. multivorans AU14786): > 32 µg/mL
- MIC (B. cepacia AU15249): 32 µg/mL (≈ 66.6 µM)
- MIC (B. pyrrocinia AU1114): 8 µg/mL (≈ 16.6 µM)
- MIC (B. ambifaria AU5203): 16 µg/mL (≈ 33.3 µM)
- MIC (B. cenocepacia AU0583): 32 µg/mL (≈ 66.6 µM)
- MIC (B. dolosa AU9336): > 32 µg/mL
- MIC (B. cepacia AU17630): > 32 µg/mL
- MIC (B. cenocepacia AU28111): 32 µg/mL (≈ 66.6 µM)
- MIC (B. stabilis AU10235): > 32 µg/mL
- MIC (B. contaminans AU15669): > 32 µg/mL
- MIC (B. gladioli AU29223): 16 µg/mL (≈ 33.3 µM)
- MIC (B. multivorans AU13919): 8 µg/mL (≈ 16.6 µM)
- MIC (B. multivorans AU28442): > 32 µg/mL
- MIC (B. cenocepacia AU9512): 32 µg/mL (≈ 66.6 µM)
- MIC (B. multivorans AU4507): 8 µg/mL (≈ 16.6 µM)
- MIC (B. cepacia AU16396): 32 µg/mL (≈ 66.6 µM)
- MIC (B. cenocepacia AU12659): 16 µg/mL (≈ 33.3 µM)
- MIC (B. multivorans AU23690): 32 µg/mL (≈ 66.6 µM)
- MIC (B. multivorans AU14364): > 32 µg/mL

SMILES: C[C@H]1COc2c(N3CCN(C)CC3)c(F)cc3c(=O)c(C(=O)O)cn1c23 [levofloxacin]
- MIC (B. contaminans AU17641): 4 µg/mL (≈ 11.1 µM)
- MIC (B. arboris AU14372): 8 µg/mL (≈ 22.1 µM)
- MIC (B. cenocepacia AU16448): 8 µg/mL (≈ 22.1 µM)
- MIC (B. pyrrocinia AU4348): > 32 µg/mL
- MIC (B. multivorans AU14786): > 32 µg/mL
- MIC (B. cepacia AU15249): 4 µg/mL (≈ 11.1 µM)
- MIC (B. pyrrocinia AU1114): > 32 µg/mL
- MIC (B. ambifaria AU5203): > 32 µg/mL
- MIC (B. cenocepacia AU0583): > 32 µg/mL
- MIC (B. dolosa AU9336): 32 µg/mL (≈ 88.6 µM)
- MIC (B. cepacia AU17630): 4 µg/mL (≈ 11.1 µM)
- MIC (B. cenocepacia AU28111): 4 µg/mL (≈ 11.1 µM)
- MIC (B. stabilis AU10235): 16 µg/mL (≈ 44.3 µM)
- MIC (B. contaminans AU15669): 8 µg/mL (≈ 22.1 µM)
- MIC (B. gladioli AU29223): 0.5 µg/mL (≈ 1.38 µM)
- MIC (B. multivorans AU13919): 2 µg/mL (≈ 5.53 µM)
- MIC (B. multivorans AU28442): 16 µg/mL (≈ 44.3 µM)
- MIC (B. cenocepacia AU9512): 16 µg/mL (≈ 44.3 µM)
- MIC (B. multivorans AU4507): 8 µg/mL (≈ 22.1 µM)
- MIC (B. cepacia AU16396): > 32 µg/mL
- MIC (B. cenocepacia AU12659): 1 µg/mL (≈ 2.77 µM)
- MIC (B. multivorans AU23690): > 32 µg/mL
- MIC (B. multivorans AU14364): 32 µg/mL (≈ 88.6 µM)

SMILES: C[C@@H](O)[C@H]1C(=O)N2C(C(=O)O)=C(S[C@@H]3CN[C@H](C(=O)N(C)C)C3)[C@H](C)[C@H]12 [meropenem]
- MIC (B. contaminans AU17641): 4 µg/mL (≈ 10.4 µM)
- MIC (B. arboris AU14372): 16 µg/mL (≈ 41.7 µM)
- MIC (B. cenocepacia AU16448): 4 µg/mL (≈ 10.4 µM)
- MIC (B. pyrrocinia AU4348): 4 µg/mL (≈ 10.4 µM)
- MIC (B. multivorans AU14786): 16 µg/mL (≈ 41.7 µM)
- MIC (B. cepacia AU15249): 4 µg/mL (≈ 10.4 µM)
- MIC (B. pyrrocinia AU1114): 4 µg/mL (≈ 10.4 µM)
- MIC (B. ambifaria AU5203): 4 µg/mL (≈ 10.4 µM)
- MIC (B. cenocepacia AU0583): 4 µg/mL (≈ 10.4 µM)
- MIC (B. dolosa AU9336): 8 µg/mL (≈ 20.9 µM)
- MIC (B. cepacia AU17630): 4 µg/mL (≈ 10.4 µM)
- MIC (B. cenocepacia AU28111): 4 µg/mL (≈ 10.4 µM)
- MIC (B. stabilis AU10235): 16 µg/mL (≈ 41.7 µM)
- MIC (B. contaminans AU15669): 16 µg/mL (≈ 41.7 µM)
- MIC (B. gladioli AU29223): 1 µg/mL (≈ 2.61 µM)
- MIC (B. multivorans AU13919): 8 µg/mL (≈ 20.9 µM)
- MIC (B. multivorans AU28442): > 32 µg/mL
- MIC (B. cenocepacia AU9512): 4 µg/mL (≈ 10.4 µM)
- MIC (B. multivorans AU4507): 8 µg/mL (≈ 20.9 µM)
- MIC (B. cepacia AU16396): 8 µg/mL (≈ 20.9 µM)
- MIC (B. cenocepacia AU12659): 4 µg/mL (≈ 10.4 µM)
- MIC (B. multivorans AU23690): 4 µg/mL (≈ 10.4 µM)
- MIC (B. multivorans AU14364): 4 µg/mL (≈ 10.4 µM)
